Data set [1] deals with human AGP. Description: SPR assay of AGP binding to lipid A/Kdo2-lipid A in DMPC hybrid SUV bilayer (L1 chip). As to conditions: 10% (mol/mol) lipid in DMPC bilayer; Kdo2-lipid A response at AGP concentrations higher than 7 μM. The procedure:
In the case of lipid A and Kdo2-lipid A binding, a L1 sensor chip was used (GE Health Care, Melbourne Australia). Small unilamellar vesicles (SUVs) were prepared in PBS by sonication and extrusion. Lipids (DMPC, lipid A, and Kdo2-lipid A) were dissolved in ethanol-free chloroform in 25 mL round-bottom flasks. 10% (mol/mol) of lipid A or Kdo2-lipid A was added into DMPC solution to make 10% lipid A/Kdo2-lipid A-DMPC mixtures, which were then deposited as a thin film by removal of the solvent (chloroform) under reduced pressure on a rotary evaporator and dried under high vacuum for at least 2 hours. PBS was then added into each flask to give a 1 mM suspension, which was sonicated 5 min for 5 times. […] The SUVs were then injected into the flow cells of the L1 sensor chip for 2000 sec at a low flow rate of 2 μL/min to form a bilayer membrane model on the chip surface. Then, a series of AGP solutions was injected across the flow cells at a flow rate of 30 μL/min, having an injection phase of 180 s and a dissociation phase of 300 s. A regeneration step was added before and after every cycle using 40 mM octyl-glucoside, which cleans the chip surface for a new cycle. Pure DMPC bilayer was applied as a reference and all data used in analysis were reference-subtracted.
(In general: SPR reads the build-up and loss of mass on a sensor chip optically.)

Data set [2] relates to human AGP. Description: Fluorometric assay of FITC-E. coli O111:B4 LPS binding to AGP. As to conditions: chlorpromazine 20 μM final concentration; FITC-LPS 5 μM, AGP 25 μM. As for the experimental part:
[…] Fluorescence was measured using a Cary Eclipse Fluorescence spectrophotometer (Varian, Mulgrave, VIC, Australia) set at an excitation wavelength specific for the FITC fluorophore (Exλ 494 nm). Slit widths were set to 5 nm for both the excitation and emission monochromators. The emission spectrum was collected in the 500→650 nm range.

The next data set concerns K. pneumoniae. The arrangement: method as in PMID 10809735. As to conditions: intraperitoneal, 10 mg, 2 h prior to lethal challenge of K. pneumoniae; cited from earlier work.
A short description of data set [3]: LPS binding affinity of plasma binding proteins. As to conditions: AGP, this study's SPR data.
In a further data set the test system is HEK293 cells. Description: Cytotoxicity of LPS to HEK293 cells (Alamar Blue cell viability), with or without AGP. The class given is cell-based. As to conditions: LPS 100 μg/mL, AGP 0-1 mg/mL. The procedure: HEK293 cell line was purchased from American Type Culture Collection (ATCC). The cells were cultured in DMEM (Invitrogen, Australia) containing 10% fetal bovine serum at 37°C, 5% CO2. Serum-free media were used in cytotoxicity assays. Cytotoxicity of LPS to HEK293 cells was determined using Alamar Blue cell viability reagent (Invitrogen, Australia). In brief, HEK293 cells were seeded as 2 × 10^4 cells per well in a clear 96-well plate and incubated for 24 hr at 37°C, 5% CO2. Then the media were replaced with serum-free media, which contained AGP and LPS (100 μg/mL). After a 24 hr incubation, 10 μL of Alamar Blue reagent were added per well and incubated at 37°C for 1 hr. Then the fluorescence intensity was read using Polar star Omega with excitation/emission wavelengths of 560/590.
A general note: Resazurin is reduced to fluorescent resorufin, in cell work by metabolically active cells.

Details of data set [4]: method as in PMID 12887306, PMID 11739189. The following applies: cited from earlier work.
In data set [5] the test system is meningococcal endotoxemia mouse model. Further details: method as in PMID 9179623. As to conditions: intraperitoneal, 8 mg, 2 h prior to LPS challenge; cited from earlier work.

“Also recorded” adds a separate entry of the source. Like-named read-outs stand apart in the source and are kept apart here.

For `CCCCCCCCCCCCCC(=O)O[C@H](CCCCCCCCCCC)CC(=O)O[C@@H]1[C@@H](NC(=O)C[C@@H](CCCCCCCCCCC)OC(=O)CCCCCCCCCCC)[C@H](OC[C@H]2O[C@H](OP(=O)(O)O)[C@H](NC(=O)C[C@H](O)CCCCCCCCCCC)[C@@H](OC(=O)C[C@H](O)CCCCCCCCCCC)[C@@H]2O)O[C@H](CO[C@]2(C(=O)O)C[C@@H](O[C@]3(C(=O)O)C[C@@H](O)[C@@H](O)[C@@H]([C@H](O)CO)O3)[C@@H](O)[C@@H]([C@H](O)CO)O2)[C@H]1OP(=O)(O)O` [Kdo2-lipid A], in the data set with human AGP [1], the “specific AGP binding to lipid in hybrid SUVs” value was “dose-dependent response; also recorded: very weak”.

With `CN(C)CCCN1c2ccccc2Sc2ccc(Cl)cc21` [chlorpromazine], the “change in fluorescence emission of the FITC-LPS:AGP complex” value in the data set with human AGP [2] is “decrease in fluorescence emission”.

“AGP: human α-1-acid glycoprotein from plasma, F1:S:A variants 40:30:30”: the survival of mice result in the data set with K. pneumoniae is given as “increased the survival of mice”. Further, in data set [3], the LPS binding affinity result is “high micromolar”. Besides, the “effect of AGP on the cytotoxic effect of LPS” value in the data set on HEK293 cells is “ameliorated in a concentration-dependent manner”.

Consider diphosphoryl lipid A, for which the “specific AGP binding to lipid in hybrid SUVs” value in the data set on human AGP [1] is “no specific AGP binding detected”.

B1: BPI: bactericidal/permeability-increasing protein (protein, UniProt P17213 32-487, looked up)
Bactericidal …: VNPGVVVRISQKGLDYASQQGTAALQKELKRIKIPDYSDSFKIKHLGKGHYSFYSMDIREFQLPSSQISMVPNVGLKFSISNANIKISGKWKAQKRFLKMSGNFDLSIEGMSISADLKLGSNPTSGKPTITCSSCSSHINSVHVHISKSKVGWLIQLFHKKIESALRNKMNSQVCEKVTNSVSSELQPYFQTLPVMTKIDSVAGINYGLVAPPATTAETLDVQMKGEFYSENHHNPPPFAPPVMEFPAAHDRMVYLGLSDYFFNTAGLVYQEAGVLKMTLRDDMIPKESKFRLTTKFFGTFLPEVAKKFPNMKIQIHVSASTPPHLSVQPTGLTFYPAVDVQAFAVLPNSSLASLFLIGMHTTGSMEVSAESNRLVGELKLDRLLLELKHSNIGPFPVELLQDIMNYIVPILVLPRVNEKLQKGFPLPTPARVQLYNVVLQPHQNFLLFGADVVYK
As for B1, the LPS binding affinity entry in data set [4] is “nanomolar”.

B2: bovine AGP: bovine α-1-acid glycoprotein (protein, UniProt Q3SZR3 19-202, looked up)
Alpha-1-acid glycoprotein: QSPECANLMTVAPITNATMDLLSGKWFYIGSAFRNPEYNKSARAIQAAFFYLEPRHAEDKLITREYQTIEDKCVYNCSFIKIYRQNGTLSKVESDREHFVDLLLSKHFRTFMLAASWNGTKNVGVSFYADKPEVTQEQKKEFLDVIKCIGIQESEIIYTDEKKDACGPLEKQHEEERKKETEAS
On to B2, for which the protection against sepsis result in data set [5] is given as “protect against sepsis”.

B3: LBP: lipopolysaccharide-binding protein, LPS-specific plasma binding protein (protein, UniProt P18428 26-481, looked up)
Lipopolysaccharide-binding …: ANPGLVARITDKGLQYAAQEGLLALQSELLRITLPDFTGDLRIPHVGRGRYEFHSLNIHSCELLHSALRPVPGQGLSLSISDSSIRVQGRWKVRKSFFKLQGSFDVSVKGISISVNLLLGSESSGRPTVTASSCSSDIADVEVDMSGDLGWLLNLFHNQIESKFQKVLESRICEMIQKSVSSDLQPYLQTLPVTTEIDSFADIDYSLVEAPRATAQMLEVMFKGEIFHRNHRSPVTLLAAVMSLPEEHNKMVYFAISDYVFNTASLVYHEEGYLNFSITDDMIPPDSNIRLTTKSFRPFVPRLARLYPNMNLELQGSVPSAPLLNFSPGNLSVDPYMEIDAFVLLPSSSKEPVFRLSVATNVSATLTFNTSKITGFLKPGKVKVELKESKVGLFNAELLEALLNYYILNTFYPKFNDKLAEGFPLPLLKRVQLYDLGLQIHKDFLFLGANVQYMRV
Take B3: in data set [4], the LPS binding affinity result is on record as “nanomolar”.

The record behind these values is PMC3539403, “Molecular Characterization of Lipopolysaccharide Binding to Human α-1-Acid Glycoprotein” (Journal of Lipids, 2012).
